Tests used:
Test in all cases: relative viability (nuclei count vs DMSO), 5 days (fraction); higher = more cells survive
Zebularine + Tozasertib = compound: O=c1ncccn1[C@@H]1O[C@H](CO)[C@@H](O)[C@H]1O [Zebularine] + Cc1cc(Nc2cc(N3CCN(C)CC3)nc(Sc3ccc(NC(=O)C4CC4)cc3)n2)n[nH]1 [Tozasertib] (partner 0.1 µM)
How it was run: (§1)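 A single step with final 0.05% Triton X-100, 1% formaldehyde and 1 ug/ml Hoechst fixed the cells and stained nuclei 5 days after treatment. Lung cancer cell lines in 1536-well plates had been treated by pin tool the day after seeding with one drug alone or a fixed anchor-drug dose plus five library-drug doses (not always all listed) in √10 steps, and nuclei were counted on 4× images. Relative viability is the ratio of nuclei in treated wells to nuclei in vehicle wells, taken as the median of duplicate plates.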

BI-D1870 + Lapatinib = compound: CC(C)CCN1c2nc(Nc3cc(F)c(O)c(F)c3)ncc2N(C)C(=O)C1C [BI-D1870] + CS(=O)(=O)CCNCc1ccc(-c2ccc3ncnc(Nc4ccc(OCc5cccc(F)c5)c(Cl)c4)c3c2)o1 [Lapatinib] (partner 2 µM)
How it was run: as §1

Zebularine + Decitabine = compound: O=c1ncccn1[C@@H]1O[C@H](CO)[C@@H](O)[C@H]1O [Zebularine] + Nc1ncn([C@H]2C[C@H](O)[C@@H](CO)O2)c(=O)n1 [Decitabine] (partner 2 µM)
How it was run: as §1

BI-D1870 + Olaparib = compound: CC(C)CCN1c2nc(Nc3cc(F)c(O)c(F)c3)ncc2N(C)C(=O)C1C [BI-D1870] + O=C(c1cc(Cc2n[nH]c(=O)c3ccccc23)ccc1F)N1CCN(C(=O)C2CC2)CC1 [Olaparib] (partner 8 µM)
How it was run: as §1

| Cell Line | relative viability (Zebularine + Tozasertib; first compound 1 µM) | relative viability (Zebularine + Tozasertib; first compound 3.162 µM) | relative viability (Zebularine + Tozasertib; first compound 10 µM) | relative viability (Zebularine + Tozasertib; first compound 31.62 µM) | relative viability (Zebularine + Tozasertib; first compound 100 µM) | relative viability (BI-D1870 + Lapatinib; first compound 0.04 µM) | relative viability (BI-D1870 + Lapatinib; first compound 0.1265 µM) | relative viability (BI-D1870 + Lapatinib; first compound 0.4 µM) | relative viability (BI-D1870 + Lapatinib; first compound 1.265 µM) | relative viability (BI-D1870 + Lapatinib; first compound 4 µM) | relative viability (Zebularine + Decitabine; first compound 1 µM) | relative viability (Zebularine + Decitabine; first compound 3.162 µM) | relative viability (Zebularine + Decitabine; first compound 31.62 µM) | relative viability (Zebularine + Decitabine; first compound 100 µM) | relative viability (BI-D1870 + Olaparib; first compound 0.04 µM) | relative viability (BI-D1870 + Olaparib; first compound 0.1265 µM) | relative viability (BI-D1870 + Olaparib; first compound 0.4 µM) | relative viability (BI-D1870 + Olaparib; first compound 1.265 µM) | relative viability (BI-D1870 + Olaparib; first compound 4 µM) | relative viability (Zebularine + Decitabine; first compound 10 µM) |
| --- | --- | --- | --- | --- | --- | --- | --- | --- | --- | --- | --- | --- | --- | --- | --- | --- | --- | --- | --- | --- |
| HCC-78 | 0.423 | 0.429 | 0.219 | 0.278 | 0.259 | 0.827 | 0.597 | 0.715 | 1.13 | 0.856 | 0.732 | 0.643 | 0.663 | 0.449 | 0.662 | 0.932 | 0.682 | 0.971 | 0.68 |  |
| HCC-366 | 0.169 | 0.112 | 0.182 | 0.132 | 0.0608 | 1.09 | 1.01 | 1 | 1.21 | 0.389 | 0.412 | 0.336 | 0.389 | 0.108 | 0.503 | 0.348 | 0.295 | 0.42 | 0.229 | 0.274 |
| HCC-827 | 0.417 | 0.445 | 0.306 | 0.373 | 0.196 | 0.224 | 0.179 | 0.194 | 0.172 | 0.231 | 0.42 | 0.353 | 0.259 | 0.346 | 0.71 | 0.649 | 0.594 | 0.634 | 0.626 | 0.259 |
| HOP-62 | 0.503 | 0.396 | 0.212 | 0.154 | 0.167 | 1.07 | 1.08 | 0.934 | 1.06 | 0.825 | 0.205 | 0.205 | 0.164 | 0.178 | 0.545 | 0.364 | 0.388 | 0.525 | 0.383 | 0.209 |
| IA-LM |  |  |  |  |  | 0.972 | 0.906 | 0.862 | 0.614 | 0.213 |  |  |  |  | 0.812 | 0.739 | 0.913 | 0.851 | 0.506 |  |
| LC-2-ad | 0.413 | 0.427 | 0.347 | 0.422 | 0.396 | 1.04 | 0.932 | 0.975 | 1.08 | 0.971 | 0.83 | 0.796 | 0.72 | 0.329 | 0.691 | 0.66 | 0.725 | 0.609 | 0.624 | 0.554 |
| LCLC-97TM1 | 0.253 | 0.225 | 0.191 | 0.102 | 0.115 | 1.35 | 0.988 | 0.622 | 1.3 | 0.916 | 0.211 | 0.202 | 0.176 | 0.117 | 0.521 | 0.33 | 0.38 | 0.634 | 0.301 | 0.183 |
| LCLC-103H | 0.448 | 0.43 | 0.402 | 0.471 | 0.355 |  |  |  |  |  | 0.801 | 0.727 | 0.719 | 0.666 | 0.813 | 0.68 | 0.676 | 0.764 | 0.671 | 0.713 |
| LK-2 | 0.179 | 0.188 | 0.171 | 0.178 | 0.166 | 1.01 | 0.888 | 0.985 | 1.04 | 0.977 | 0.34 | 0.338 | 0.288 | 0.194 | 0.913 | 0.655 | 0.683 | 0.834 | 0.71 | 0.274 |

Reference: the supplement of paper PMC10307832
